Assay results reported in US20220249665A1, “TRANSFECTION METHOD” (Takeda Pharmaceutical Company Limited, priority 2019, published 2022).

System: C2C12 cells
Assay: Introduction of low-molecular-weight compound (FITC) into skeletal muscle cell
Type: cell-based
Description: C2C12 cells (3×10^4 cells, 0.5 mL) in 10% FBS-containing DMEM medium were seeded in 48 wells. After removing the medium, 0.5 ml of ultrafine bubble/DMEM medium containing 0.38 μg of FITC was added. An ultrafine bubble/DMEM medium prepared by adding 1 L of the ultrafine bubble aqueous solution prepared in Reference Example 1 to a DMEM medium powder, and adding 2 g/L NaHCO3 and 10% FBS was used as a transfection medium.
After adding the FITC-containing medium, ultrasound exposure was performed for 10 sec at a frequency of 1 MHz and output intensities of 100, 250, 500 mW/cm^2 and using an ultrasound generator (NEPAGENE). After ultrasound exposure, the cells were cultured for 2 hr, then the transfection medium was removed, and the cells were cultured in DMEM medium (culture medium) for 48 hr.
After completion of the culture, the cells were collected, completely lysed with 0.5 mL of cell lysis solution, and the fluorescent intensity of FITC was measured with a spectrofluoro-photometer. The amount of FITC uptake was evaluated as a relative amount by proportional calculation with the measured value of Control (ultrafine bubbles alone) as 1.

Structure (SMILES): O=C1OC2(c3ccc(O)cc3Oc3cc(O)ccc32)c2ccc(N=C=S)cc21 [FITC]
- introduction efficiency of FITC into the cell (ultrafine bubbles (negatively-charged, C3F8) combined with ultrasound 1 MHz, 10 sec, C2C12, 0.38 μg FITC): remarkably increased
- introduction efficiency of FITC (ultrafine bubbles + ultrasound 100 mW/cm^2): increasing tendency was observed
- introduction efficiency of FITC (ultrafine bubbles + ultrasound 250 mW/cm^2): particularly superior introduction efficiency
- introduction efficiency of FITC (ultrafine bubbles + ultrasound 250 or 500 mW/cm^2): increased significantly
